Test system: spleen lymphocytes of B2-haplotype chicken infected with ALV-J
Assay: IFN-γ ELISpot assay detecting immunogenicity of candidate peptides
Type: cell-based
Conditions: peptide 10 μg/mL as stimulant, spleen lymphocytes of B2-haplotype chicken infected for 28 d; for IFN-γ ELISpot spots generated compared with the negative control group: 24-48 h; for IFN-γ ELISpot spots, significance versus negative control (immunogenic T cell epitope): P<0.05, three independent replications
Procedure: The B2-haplotype chicken infected for 28 d (day) in 2.1 is taken, and the spleen lymphocytes of the chicken are isolated according to the kit instructions of the chicken organ tissue mononuclear cell isolation solution, and an ELISpot assay is performed to detect the immunogenicity of candidate peptide epitopes. The specific steps are as follows:
(1) PVDF 96-well plate activation: 15 μL 35% ethanol is added to each well for reaction for less than 1 min, and then the wells are washed five times with sterile water.
(2) Antibody coating: the anti-chicken IFN-γ is diluted to 15 μg/mL, and 100 μL of that is added to each well, and the mixture is incubated at 4° C. overnight.
(3) Blocking: the coating solution is discarded, followed by washing 5 times with DPBS, and the plate is dried on the sterilized absorbent paper. RMPI 1640 medium containing 10% FBS is added to PVDF 96-well plate at 200 μL/well and the reaction is blocked at room temperature for 30 min.
(4) Stimulation: the blocking solution is discarded and 100 μL of prepared lymphocyte suspension at the concentration of 5*10^6 cells/mL is added to each well. At the same time, 50 μL diluted antigenic peptide is added to the experimental group at the final concentration of 10 μg/mL, PMA at the final concentration of 10 μg/mL is added to the positive control group, and no irritant is added to the negative control group. After all the samples are added, PVDF 96-well plate is placed in CO2 incubator at 37° C. for 24-48 h.
(5) Incubation of secondary antibody: after the culture, the cells are shaken off and the plate is washed five times with DPBS. Then 100 μL biotinylated secondary antibody with a concentration of 1 μg/mL is added to each well and the plate is incubated for 2 h at room temperature.
(6) HRP incubation: the secondary antibody solution is discarded and washed with DPBS for 5 times. Then 100 μL streptavidin-labeled HRP is added to the well and incubated at room temperature for 1 h.
(7) Color development: the HRP incubation solution is discarded and the plate is washed with DPBS for 5 times. Then 100 μL TMB color-developing substrate is added to each well followed by incubation at room temperature or 37° C. for 15-30 min. When obvious spots appeared in the positive control group, the color-developing solution could be discarded. the color development is stopped with pure water and the plate is read after air drying.

Sequence | IFN-γ ELISpot spots generated compared with the negative control group | IFN-γ ELISpot spots, significance versus negative control (immunogenic T cell epitope)
FVDFANRLI (ALV-J-59) | could generate spots | significantly produce more spots
SALQAFREV (ALV-J-61) | could generate spots | significantly produce more spots
TVDTASSAI (ALV-J-52) | could generate spots | significantly produce more spots
